Test results from ChEMBL document CHEMBL5316381, “Discovery of [1,2,3]Triazolo[4,5-c]quinoline Derivatives as a New Class of Ataxia-Telangiectasia Mutated Kinase Inhibitors” (ACS Med Chem Lett, 2023).
The source made the active and inactive calls. No cut-off for these calls is given here.

Assays:
SW-620 [1] = experiment: In vivo inhibition of ATM in BALB/c mouse model xenografted with human SW620 cells assessed as inhibition of Chk2 phosphorylation at 5 mg/kg, ip administered once daily and measured after 23 days in the presence of CPT-11 by Western blot analysis; type: functional, organism-based; conditions: time 23.0 day
SW-620 [2] = experiment: Induction of apoptosis in human SW620 cells assessed as early apoptotic cells at 30 nM measured after 72 hrs in presence of CPT-11 by Annexin V-FITC staining based flow cytometric analysis (reference value: 1.06%); type: functional
[3] = biological target: T1, Serine-protein kinase ATM (Homo sapiens, UniProt Q13315); experiment: Inhibition of ATM phosphorylation in human SW620 cells with IR-induced DNA damage in the presence of 3 Gy irradiation by Western blot analysis; type: cell-based; conditions: dose 3-250 nM
T1 sequence (Q13315 whole entry): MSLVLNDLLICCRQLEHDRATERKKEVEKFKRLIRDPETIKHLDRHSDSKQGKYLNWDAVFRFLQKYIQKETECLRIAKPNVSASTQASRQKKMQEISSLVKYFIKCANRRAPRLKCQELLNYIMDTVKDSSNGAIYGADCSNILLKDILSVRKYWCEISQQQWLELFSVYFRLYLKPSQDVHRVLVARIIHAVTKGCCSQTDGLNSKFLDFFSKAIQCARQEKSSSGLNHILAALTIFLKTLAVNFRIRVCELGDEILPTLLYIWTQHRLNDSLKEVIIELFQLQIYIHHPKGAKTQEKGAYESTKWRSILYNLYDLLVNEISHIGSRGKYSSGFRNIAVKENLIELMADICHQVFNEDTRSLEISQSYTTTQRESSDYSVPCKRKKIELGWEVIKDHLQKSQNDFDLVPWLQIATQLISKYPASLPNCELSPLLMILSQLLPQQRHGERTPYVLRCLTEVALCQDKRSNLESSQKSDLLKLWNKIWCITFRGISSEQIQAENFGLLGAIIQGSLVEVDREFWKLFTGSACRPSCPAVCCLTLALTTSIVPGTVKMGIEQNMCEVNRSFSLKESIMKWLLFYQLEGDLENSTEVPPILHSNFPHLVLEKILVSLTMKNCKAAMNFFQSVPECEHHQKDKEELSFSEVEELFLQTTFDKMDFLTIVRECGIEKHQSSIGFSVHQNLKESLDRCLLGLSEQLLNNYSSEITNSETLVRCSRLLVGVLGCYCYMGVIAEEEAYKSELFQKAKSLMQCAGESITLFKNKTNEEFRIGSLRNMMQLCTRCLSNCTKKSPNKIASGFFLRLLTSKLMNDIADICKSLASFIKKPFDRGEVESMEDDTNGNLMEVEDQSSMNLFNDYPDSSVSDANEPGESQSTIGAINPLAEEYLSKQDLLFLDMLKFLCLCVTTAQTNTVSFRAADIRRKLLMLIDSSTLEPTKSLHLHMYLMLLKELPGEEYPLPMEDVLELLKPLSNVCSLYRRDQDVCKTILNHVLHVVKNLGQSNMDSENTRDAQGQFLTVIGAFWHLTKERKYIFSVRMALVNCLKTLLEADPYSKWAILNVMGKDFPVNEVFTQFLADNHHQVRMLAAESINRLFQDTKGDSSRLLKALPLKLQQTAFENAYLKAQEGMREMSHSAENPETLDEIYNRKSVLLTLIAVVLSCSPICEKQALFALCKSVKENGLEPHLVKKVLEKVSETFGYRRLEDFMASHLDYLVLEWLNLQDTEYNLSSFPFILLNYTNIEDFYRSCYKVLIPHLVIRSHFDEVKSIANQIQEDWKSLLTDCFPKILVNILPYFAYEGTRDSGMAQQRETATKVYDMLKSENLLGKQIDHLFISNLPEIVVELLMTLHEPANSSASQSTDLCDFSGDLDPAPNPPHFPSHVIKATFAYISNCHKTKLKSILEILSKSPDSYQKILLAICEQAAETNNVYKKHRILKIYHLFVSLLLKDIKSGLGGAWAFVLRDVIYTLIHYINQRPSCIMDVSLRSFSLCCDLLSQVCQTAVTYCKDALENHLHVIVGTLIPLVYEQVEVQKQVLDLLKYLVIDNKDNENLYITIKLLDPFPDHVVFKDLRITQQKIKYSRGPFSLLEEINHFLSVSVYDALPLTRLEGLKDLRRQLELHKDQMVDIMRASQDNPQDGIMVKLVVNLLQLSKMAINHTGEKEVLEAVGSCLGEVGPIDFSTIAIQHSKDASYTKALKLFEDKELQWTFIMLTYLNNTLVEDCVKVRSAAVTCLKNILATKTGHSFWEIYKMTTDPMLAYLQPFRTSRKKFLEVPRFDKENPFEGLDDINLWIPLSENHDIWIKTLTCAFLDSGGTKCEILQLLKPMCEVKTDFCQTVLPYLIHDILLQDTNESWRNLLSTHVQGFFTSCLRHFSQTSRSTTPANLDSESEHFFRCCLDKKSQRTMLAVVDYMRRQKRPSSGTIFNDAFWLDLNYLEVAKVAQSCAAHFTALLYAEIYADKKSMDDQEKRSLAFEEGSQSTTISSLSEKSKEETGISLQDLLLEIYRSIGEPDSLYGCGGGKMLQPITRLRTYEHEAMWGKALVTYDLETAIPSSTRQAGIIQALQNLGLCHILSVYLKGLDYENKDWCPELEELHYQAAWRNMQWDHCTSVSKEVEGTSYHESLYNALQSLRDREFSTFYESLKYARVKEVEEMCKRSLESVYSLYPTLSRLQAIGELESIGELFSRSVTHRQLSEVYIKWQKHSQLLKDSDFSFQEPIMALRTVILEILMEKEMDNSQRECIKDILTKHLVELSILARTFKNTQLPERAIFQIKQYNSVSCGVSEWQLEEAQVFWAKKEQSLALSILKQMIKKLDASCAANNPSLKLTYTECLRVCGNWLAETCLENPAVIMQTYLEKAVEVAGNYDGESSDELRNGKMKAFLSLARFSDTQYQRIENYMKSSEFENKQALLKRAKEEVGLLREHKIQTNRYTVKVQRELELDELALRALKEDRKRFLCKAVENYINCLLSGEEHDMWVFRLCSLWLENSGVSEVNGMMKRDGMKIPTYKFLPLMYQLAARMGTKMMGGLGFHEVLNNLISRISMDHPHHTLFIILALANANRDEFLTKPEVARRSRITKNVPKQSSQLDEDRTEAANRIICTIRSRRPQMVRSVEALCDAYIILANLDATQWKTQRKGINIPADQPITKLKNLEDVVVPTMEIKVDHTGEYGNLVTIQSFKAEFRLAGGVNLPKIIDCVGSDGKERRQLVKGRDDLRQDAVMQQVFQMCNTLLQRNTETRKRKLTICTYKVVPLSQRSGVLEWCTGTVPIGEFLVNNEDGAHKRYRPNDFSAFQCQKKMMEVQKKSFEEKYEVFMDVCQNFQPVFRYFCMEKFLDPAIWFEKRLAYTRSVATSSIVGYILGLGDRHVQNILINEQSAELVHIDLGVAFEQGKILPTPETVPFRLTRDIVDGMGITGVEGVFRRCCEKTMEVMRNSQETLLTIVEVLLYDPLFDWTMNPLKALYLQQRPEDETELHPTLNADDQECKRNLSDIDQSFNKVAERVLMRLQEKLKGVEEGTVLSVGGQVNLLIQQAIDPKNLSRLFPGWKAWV

HCT-116 [4] = experiment: Induction of apoptosis in human HCT-116 cells assessed as late apoptotic cells at 1 uM measured after 72 hrs by Annexin V-FITC staining based flow cytometric analysis (reference value: 19.80%); type: functional
HCT-116 [5] = experiment: Induction of apoptosis in human HCT-116 cells assessed as necrotic cells at 1 uM measured after 72 hrs by Annexin V-FITC staining based flow cytometric analysis (reference value: 2.41%); type: functional
SW-620 [6] = experiment: Cell cycle arrest in human SW620 cells assessed as accumulation of cells at G2/M phase incubated for 24 hrs in presence of CPT-11 by PI staining based flow cytometric analysis; type: functional; conditions: dose 10-100 nM
[7] = Toxicity in BALB/c mouse xenografted with human SW620 cells assessed as spleen damage at 5 mg/kg, ip administered once daily and measured after 23 days by H&E staining based microscopic analysis; type: organism-based, SW-620; conditions: in vivo, 552 h, time 23 day
SW-620 [8] = experiment: Induction of apoptosis in human SW620 cells assessed as necrotic cells at 30 nM measured after 72 hrs in presence of CPT-11 by Annexin V-FITC staining based flow cytometric analysis (reference value: 5.83%); type: functional
SW-620 [9] = experiment: Radiosensitizing activity against human SW620 cells assessed as reduction in colony formation at 9 nM incubated after 14 days in the presence of 1.5 Gy irradiation by crystal violet staining based analysis; type: functional, cell-based; conditions: time 14.0 day
[10] = biological target: PI3-kinase p110-delta/p85-alpha (Homo sapiens, UniProt O00329); experiment: Inhibition of human PI3K p110 delta/p85 alpha using phosphatidylinositol-4, 5-bisphosphate as substrate incubated for 30 mins in the presence of Mg/ATP mix by HTRF-based analysis; type: protein-complex assay
PI3-kinase p110-delta/p85-alpha, sequence (P27986 whole entry): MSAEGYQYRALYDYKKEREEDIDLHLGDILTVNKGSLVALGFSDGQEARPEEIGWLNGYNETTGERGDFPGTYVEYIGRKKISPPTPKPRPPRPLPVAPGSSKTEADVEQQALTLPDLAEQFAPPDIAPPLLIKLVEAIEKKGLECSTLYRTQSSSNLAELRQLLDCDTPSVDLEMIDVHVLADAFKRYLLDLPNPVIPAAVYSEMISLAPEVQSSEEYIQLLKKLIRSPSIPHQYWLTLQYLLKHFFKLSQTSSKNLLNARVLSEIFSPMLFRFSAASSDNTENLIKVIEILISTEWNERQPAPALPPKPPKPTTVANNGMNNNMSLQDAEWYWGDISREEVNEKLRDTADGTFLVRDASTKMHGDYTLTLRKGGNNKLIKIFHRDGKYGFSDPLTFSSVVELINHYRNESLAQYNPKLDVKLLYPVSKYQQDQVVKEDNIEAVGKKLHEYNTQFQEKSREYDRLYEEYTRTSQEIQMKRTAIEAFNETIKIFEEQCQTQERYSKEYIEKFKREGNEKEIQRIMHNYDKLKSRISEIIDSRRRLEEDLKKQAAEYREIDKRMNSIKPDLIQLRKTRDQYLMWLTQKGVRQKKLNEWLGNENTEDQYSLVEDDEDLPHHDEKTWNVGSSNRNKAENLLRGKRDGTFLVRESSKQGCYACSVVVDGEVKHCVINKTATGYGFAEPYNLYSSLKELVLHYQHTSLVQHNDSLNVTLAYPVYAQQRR
PI3-kinase p110-delta/p85-alpha, sequence (O00329 whole entry): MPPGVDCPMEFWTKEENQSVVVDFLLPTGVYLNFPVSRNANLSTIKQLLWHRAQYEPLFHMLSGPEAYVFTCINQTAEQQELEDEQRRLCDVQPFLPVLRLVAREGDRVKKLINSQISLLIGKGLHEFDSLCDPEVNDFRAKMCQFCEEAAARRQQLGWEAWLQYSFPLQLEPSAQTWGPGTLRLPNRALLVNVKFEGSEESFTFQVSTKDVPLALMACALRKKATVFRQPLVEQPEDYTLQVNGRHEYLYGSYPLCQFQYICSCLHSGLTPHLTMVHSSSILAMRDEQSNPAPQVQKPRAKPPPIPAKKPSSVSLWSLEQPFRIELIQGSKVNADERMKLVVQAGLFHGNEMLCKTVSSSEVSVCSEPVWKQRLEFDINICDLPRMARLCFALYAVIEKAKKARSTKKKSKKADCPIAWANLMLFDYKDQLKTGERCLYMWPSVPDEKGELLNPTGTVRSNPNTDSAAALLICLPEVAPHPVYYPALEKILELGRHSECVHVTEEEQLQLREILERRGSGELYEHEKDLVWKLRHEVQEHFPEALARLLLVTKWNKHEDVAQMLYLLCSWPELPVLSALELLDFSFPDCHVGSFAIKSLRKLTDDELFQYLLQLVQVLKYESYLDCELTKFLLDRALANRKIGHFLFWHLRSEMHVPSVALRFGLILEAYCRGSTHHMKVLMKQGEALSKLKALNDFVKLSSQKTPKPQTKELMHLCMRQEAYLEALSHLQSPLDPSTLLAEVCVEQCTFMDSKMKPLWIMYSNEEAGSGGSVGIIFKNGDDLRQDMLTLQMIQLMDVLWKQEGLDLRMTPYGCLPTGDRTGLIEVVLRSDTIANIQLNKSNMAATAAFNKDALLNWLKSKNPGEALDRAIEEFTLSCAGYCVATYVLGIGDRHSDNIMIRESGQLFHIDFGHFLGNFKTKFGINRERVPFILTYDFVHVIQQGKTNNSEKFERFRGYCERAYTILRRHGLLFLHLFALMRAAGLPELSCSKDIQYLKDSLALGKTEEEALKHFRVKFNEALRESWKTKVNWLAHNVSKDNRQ

SW-620 [11] = experiment: Antiproliferative activity against human SW620 cells assessed as reduction in colony formation at 9 nM measured after 14 days by crystal violet staining based microscopic analysis; type: functional, cell-based; conditions: time 14.0 day
SW-620 [12] = experiment: Antitumor activity against human SW620 cells xenografted in BALB/C mouse assessed as reduction in tumor volume at 5 mg/kg, ip administered once a week and measured after 23 days in the presence of CPT-11; type: functional, organism-based; conditions: time 23.0 day
SW-620 [13] = experiment: Induction of apoptosis in human SW620 cells assessed as early apoptotic cells at 100 nM measured after 72 hrs in presence of CPT-11 by Annexin V-FITC staining based flow cytometric analysis (reference value: 1.06%); type: functional
HCT-116 [14] = experiment: Induction of apoptosis in human HCT-116 cells assessed as necrotic cells at 100 nM measured after 72 hrs in presence of CPT-11 by Annexin V-FITC staining based flow cytometric analysis (reference value: 2.41%); type: functional
[15] = biological target: T2, Serine/threonine-protein kinase Chk1 (Homo sapiens) (UniProt O14757); experiment: Inhibition of CPT-11 induced Chk1 phosphorylation in human SW620 cells by SDS-PAGE based Westernblot analysis; type: cell-based
T2 sequence (whole entry): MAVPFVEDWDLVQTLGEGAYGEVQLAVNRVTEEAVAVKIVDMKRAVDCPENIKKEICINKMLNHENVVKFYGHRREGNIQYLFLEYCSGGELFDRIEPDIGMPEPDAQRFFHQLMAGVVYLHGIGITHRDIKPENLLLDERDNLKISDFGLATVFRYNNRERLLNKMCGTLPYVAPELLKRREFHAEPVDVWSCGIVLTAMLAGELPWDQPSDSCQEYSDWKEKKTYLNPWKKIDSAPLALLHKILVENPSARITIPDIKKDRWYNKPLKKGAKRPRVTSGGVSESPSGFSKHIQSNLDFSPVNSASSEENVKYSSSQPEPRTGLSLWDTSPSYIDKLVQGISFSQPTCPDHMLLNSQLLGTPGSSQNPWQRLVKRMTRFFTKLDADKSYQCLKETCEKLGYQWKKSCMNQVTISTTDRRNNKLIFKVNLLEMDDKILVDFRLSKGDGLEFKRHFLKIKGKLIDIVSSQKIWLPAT

HCT-116 [16] = experiment: Anticancer activity against human HCT-116 cells assessed as reduction in cell viability by measuring fold change in CPT-11 IC50 at 100 nM incubated for 5 days by MTT assay relative irinotecan alone; type: functional; conditions: time 5 day
HCT-116 [17] = experiment: Induction of apoptosis in human HCT-116 cells assessed as late apoptotic cells at 30 nM measured after 72 hrs in presence of CPT-11 by Annexin V-FITC staining based flow cytometric analysis (reference value: 19.80%); type: functional
SW-620 [18] = experiment: Induction of apoptosis in human SW620 cells assessed as necrotic cells at 100 nM measured after 72 hrs by Annexin V-FITC staining based flow cytometric analysis (reference value: 5.83%); type: functional
[19] = Toxicity in BALB/c mouse xenografted with human SW620 cells assessed as heart damage at 5 mg/kg, ip administered once daily and measured after 23 days by H&E staining based microscopic analysis; type: organism-based, SW-620; conditions: in vivo, 552 h, time 23 day
SW-620 [20] = experiment: Cell cycle arrest in human SW620 cells assessed as accumulation of cells at G2/M phase upto 100 nM incubated for 24 hrs by PI staining based flow cytometric analysis; type: functional
SW-620 [21] = experiment: Radiosensitizing activity against human SW620 cells assessed as reduction in colony formation at 27 nM incubated after 14 days in the presence of 3 Gy irradiation by crystal violet staining based analysis; type: functional, cell-based; conditions: time 14.0 day
[22] = biological target: DNA-dependent protein kinase catalytic subunit (Homo sapiens, UniProt P78527); experiment: Inhibition of DNA-PK (unknown origin) using GST-cMyc-p53 as substrate incubated for 30 mins in the presence of Mg/ATP mix by HTRF-based analysis
[23] = biological target: T1, Serine-protein kinase ATM; experiment: Inhibition of ATM phosphorylation in human SW620 cells with IR-induced DNA damage in the presence of 1.5 Gy irradiation by Western blot analysis; type: cell-based; conditions: dose 3-250 nM
[24] = biological target: Serine/threonine-protein kinase mTOR (Homo sapiens, UniProt P42345); experiment: Inhibition of mTOR (unknown origin) incubated for 40 mins in the presence of Mn/ATP mix by scintillation counting analysis
SW-620 [25] = experiment: Induction of apoptosis in human SW620 cells assessed as early apoptotic cells at 10 nM measured after 72 hrs in presence of CPT-11 by Annexin V-FITC staining based flow cytometric analysis (reference value: 1.06%); type: functional
HCT-116 [26] = experiment: Induction of apoptosis in human HCT-116 cells assessed as early apoptotic cells at 100 nM measured after 72 hrs in presence of CPT-11 by Annexin V-FITC staining based flow cytometric analysis (reference value: 4.06%); type: functional

Q: Which inhibition (SW-620 [1]) does the source give for C[C@H](c1ccccc1)n1nnc2cnc3ccc(-c4ccc(OCCCN(C)C)nc4)cc3c21 here?
A: The inhibition was “Active”.

Q: What about the Activity (SW-620 [2]) of the same compound?
A: The Activity was 6.95%.

Q: What about the inhibition [3] of the same compound?
A: The inhibition was “Dose-Dependent Effect”.

Q: What about the Activity (HCT-116 [4]) of the same compound?
A: The Activity was 31.02%.

Q: What about the Activity (HCT-116 [5]) of the same compound?
A: Its Activity is 5.57%.

Q: What about the Activity (SW-620 [6]) of the same compound?
A: Its Activity is “Dose-Dependent Effect”.

Q: And the Activity [7]?
A: Its Activity is “Non-Toxic”.

Q: What about the Activity (SW-620 [8]) of the same compound?
A: Its Activity is 1.83%.

Q: What about the Activity (SW-620 [9]) of the same compound?
A: The Activity was “Active”.

Q: What about the IC50 [10] of the same compound?
A: The IC50 was 1030 nM.

Q: What about the Activity (SW-620 [11]) of the same compound?
A: Its Activity is “inactive”.

Q: What about the Activity (SW-620 [12]) of the same compound?
A: The Activity was “Active”.

Q: What about the Activity (SW-620 [13]) of the same compound?
A: The Activity was 7.18%.

Q: What about the Activity (HCT-116 [14]) of the same compound?
A: Its Activity is 7.04%.

Q: And the inhibition [15]?
A: The inhibition was “inactive”.

Q: And the “fold change (FC)” value (HCT-116 [16])?
A: Its value is 16.

Q: And the Activity (HCT-116 [17])?
A: The Activity was 63.63%.

Q: And the Activity (SW-620 [18])?
A: The Activity was 6.3%.

Q: And the Activity [19]?
A: Its Activity is “Non-Toxic”.

Q: And the Activity (SW-620 [20])?
A: The Activity was “inactive”.

Q: What about the Activity (SW-620 [21]) of the same compound?
A: The Activity was “Active”.

Q: What about the IC50 [22] of the same compound?
A: Its IC50 is 123 nM.

Q: And the inhibition [23]?
A: The inhibition was “Dose-Dependent Effect”.

Q: What about the IC50 [24] of the same compound?
A: The IC50 was 216 nM.

Q: What about the Activity (SW-620 [25]) of the same compound?
A: Its Activity is 2.76%.

Q: What about the Activity (HCT-116 [26]) of the same compound?
A: Its Activity is 2.77%.
